Source: US20240075004A1, “VERY-LONG-CHAIN POLYUNSATURATED FATTY ACIDS, ELOVANOID HYDROXYLATED DERIVATIVES, AND METHODS OF USE” (The Board of Supervisors of Louisiana State University and …, priority 2020, published 2024)

Tests used:
[1] = test system: ARPE-19 cells; assay: Protein abundance and apoptosis in ARPE-19 cells undergoing UOS; type: cell-based; settings: RPE cells under UOS; sodium salt forms
Method: ELV-N32 or ELV-N34 indicates the sodium salt forms, and ELV-N34-Me or ELV-N32-Me indicates the methyl ester forms. ELVs induces the following effects in ARPE-19 cells undergoing UOS: (panel a) Concentration-dependent (100 and 250 nM) upregulation of SIRT1. The results are the averages of three independent experiments; (panel b) upregulation of Iduna abundance; (panel c) increased abundance of anti-apoptotic proteins Bcl-2 and Bcl-xL; (panel d) decreased abundance of pro-apoptotic proteins Bax, (panel e) Bid and (panel f) Bim. (panel g) Concentration-dependent (100 and 250 nM) upregulation of Prohibitin (type-1) by ELVs takes place. (panel h) Concentration-dependent (50, 100, 250, and 500 nM) reduction of UOS-induced apoptosis. Error bars, SEM; *p<0.05.

[2] = test system: RPE and PRC; assay: Subretinal injection of OAβ in WT mice: fundus/OCT and ZO-1 whole flat mount of RPE; type: in vivo, C57BL/6J WT mice; settings: for PRC degeneration (fundus, OCT): ELV injected alone (200 ng subretinal), six-month-old WT mice, 7 days; for RPE morphology (ZO-1 flat mount) / protection of PRC (OCT, PRC layer thickness): co-injected with OAβ, followed by topical application during 7 days
Method: All animal experiments were performed according to ARVO Statement for the Use of Animals in Ophthalmic and Vision Research, and the protocol was approved by LSU Health New Orleans' Institutional Animal Care and Use Committee (IACUC). 6-month-old 5×FAD mice (stock number: 34848-JAX, The Jackson Laboratory, Bar Harbor, ME, USA), co-overexpress FAD mutant forms of human amyloid precursor protein (the Swedish mutation: K670N, M671L; the Florida mutation: I716V; and the London mutation: V7171) and presenilin 1 (PS1, encoded by Psen1: M146L, L286V) transgenes under transcriptional control of the neuron-specific mouse Thy1 promoter. 5×FAD mice were hemizygotes with respect to the transgenes and non-transgenic WT littermates. Genotyping was performed by PCR of tail DNA. All analyses were carried out blind with respect to the mice genotype. For the subretinal injection, 6-month-old C57BL/6J mice were anesthetized by an intraperitoneal injection of ketamine/xylazine, pupils dilated with 1.0% tropicamide (Akorn, IL, USA); and 0.5% Proparacaine Hydrochloride (Akorn) was applied for topical anesthesia. Eyes were punctured with a 30-gauge needle between the corneoscleral junction and the ora serrata into the vitreous cavity without disturbing the lens. Compounds were delivered to the subretinal region using a 33-gauge blunt needle attached to a 5 μl Hamilton syringe (Hamilton Company, Reno, NV, USA) under a dissecting microscope. Non-injected mice were used as negative control while the PBS injected mice were used for sham. The injection volume was 2 μl containing PBS, 10 μM of OAβ, 10 μM of OAβ+200 ng ELV-N-32, 200 ng ELV-N-32 alone, 10 μM of OAβ+200 ng ELV-N-34 or 200 ng ELV-N-34 alone (n=12/group). All groups received topical drops: PBS only or ELV-N-32 (200 nM) or ELV-N-34 (200 nM), twice a day for 3 or 7 days.
For the whole mount RPE staining, eyeballs were enucleated and pre-fixed in 4% PFA for 15 min. Then the eye cup containing RPE sheet were fixed in 4% PFA for 30 min, washed in PBS 3× following the blocking step for 1 h at room temperature. The immunostaining was performed by incubating primary antibody (ZO-1) for 48 h at 4° C. Then the eye cups were washed 3× with PBS and incubated with the secondary antibody for 12 h at 4° C. The primary human RPE cells as well as mouse eye cups were embedded in ProLong™ Gold Antifade Mounting medium (Thermo Fisher Scientific) between two glass coverslips. Pictures were taken with Olympus FV1200 microscope (Olympus, Japan). Images were analyzed by software ImageJ (rsb.info.nih.gov/ij/).
7 days post-injection, mice were anesthetized with ip ketamine/xylazine, pupil dilated by topical 1.0% tropicamide and placed in a custom-built holder for OCT imaging (body temperature maintained at 38° C. with a heat pad). Retinas were imaged along the horizontal meridian through the optic nerve head using a Heidelberg Spectralis HRA OCT system (Heidelberg Engineering, Heidelberg, Germany). Axial resolution is […]. The raw OCT B-scans cross-sectional images were exported with the scale in m and opened in ImageJ (http//imagej.nih.gov/ij). The PRC layer thickness was defined as the width from the tip of the outer nuclear layer, right after the outer plexiform layer, to the outer segments of PRC. Three measurements were made on the same scan and averaged. Mean and standard error of the mean (SEM) were calculated (n=4/group). Students' T-test was used to calculate statistical significance and a P-value less than 0.05 was considered significant.

[3] = test system: human RPE cells; assay: Oxidative-stress and Erastin induced cell death in human RPE cells; type: cell-based

SMILES | abundance of cell damaging proteins [1] | abundance of pro-homeostatic proteins [1] | PRC degeneration (fundus, OCT) [2] | RPE morphology (ZO-1 flat mount) [2] | protection of PRC (OCT, PRC layer thickness) [2] | oxidative-stress and Erastin induced cell deaths [3]
CC/C=C\C[C@H](O)\C=C/C=C/C=C/[C@H](O)C/C=C\C/C=C\CCCCCCCCCCCCCCC(=O)O [ELV-N-34] | decrease abundance | enhance abundance | did not yield PRC degeneration | restoration of RPE morphology | protection of PRC | –
CC/C=C\C[C@H](O)\C=C/C=C/C=C/[C@H](O)C/C=C\C/C=C\CCCCCCCCCCCCC(=O)O [ELV-N-32] | decrease abundance | enhance abundance | did not yield PRC degeneration | restoration of RPE morphology | protection of PRC | counteracted
